“Also recorded” adds a separate entry of the source. Read-outs that look alike come from different tables or passages of the source.
Experiments:
Huh-7 cell = assay: Cell viability in Huh-7 cells; format: cell-based, human; settings: Huh-7, Figure S2
Description: However, IC50 values for other 5 fluorescent compounds were able to be determined (Supplemental dataset S2). We then measured the fluorescence of all 9 fluorescent compounds at a series of different concentrations.

recombinant human NAMPT = biological target: T1, recombinant human NAMPT (Homo sapiens, UniProt P43490); assay: NAMPT activity assay, IC50 determination (fluorometric detection of NMN derivative); settings: molecular/biochemical assay, read-out: IC50 (NAMPT inhibition)
T1 construct: His tag (N); made in house; host or cells: E. coli BL21-CodonPlus (DE3)-RIL, pET21a+ vector
T1 sequence (P43490 whole entry): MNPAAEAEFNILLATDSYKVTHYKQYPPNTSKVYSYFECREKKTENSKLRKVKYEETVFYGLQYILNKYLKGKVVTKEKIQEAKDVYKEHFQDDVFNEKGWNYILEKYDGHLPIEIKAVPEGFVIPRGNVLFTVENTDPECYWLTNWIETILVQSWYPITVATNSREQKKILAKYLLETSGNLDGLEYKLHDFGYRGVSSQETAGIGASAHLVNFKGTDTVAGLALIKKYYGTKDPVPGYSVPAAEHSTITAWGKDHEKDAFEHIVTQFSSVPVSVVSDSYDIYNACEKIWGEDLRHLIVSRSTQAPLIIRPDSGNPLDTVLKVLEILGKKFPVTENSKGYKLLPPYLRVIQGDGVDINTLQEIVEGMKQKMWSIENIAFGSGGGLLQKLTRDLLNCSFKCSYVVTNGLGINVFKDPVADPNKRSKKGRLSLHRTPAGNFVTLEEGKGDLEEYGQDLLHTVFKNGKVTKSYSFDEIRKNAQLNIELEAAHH
Description: Using our previously established high throughput screening (HTS) platform and recombinant human NAMPT[14][15], we performed a HTS on a chemical library containing 30000 small-molecules (Chemdiv, CA, USA). Our HTS targeting NAMPT was developed based on a fluorometric method for NAMPT activity assay by measuring the fluorescence of nicotinamide mononucleotide (NMN) derivative resulting from the NAMPT enzymatic product NMN through simple chemical reactions (Fig. 1A). […] These fluorescent and non-fluorescent compounds were further studied separately.
HTS was performed using our previously reported method. 0.5 μl stock of each compound (1 mM DMSO stock) was transferred to a 96-well PCR plate for screening. In the primary screening, 5 ng NAMPT in 20 μl reaction buffer [0.4 mM phosphoribosylpyrophosphate (PRPP, Sigma), 2 mM ATP, 0.02% BSA, 2 mM DTT, 12 mM MgCl2 and 50 mM Tris-HCl (pH = 7.5)] was added into each well, the plate was incubated at 37 °C for 5 min, then 4.5 μl substrate of NAM was added to initiate the enzyme reaction, resulting in a final concentration of 2% DMSO, 2 μg/ml NAMPT, 0.2 μM NAM and 20 μM compound. After reacting at 37 °C for 15 min, the enzyme reaction was terminated by heating at 95 °C for 1 min and cooling in an ice bath. The product of NMN was detected through the following approach: after adding 10 μl 20% acetophenone in DMSO and 10 μl 2 M KOH into each well, the mixture was vortex-mixed and kept in ice bath for 2 min. […] Finally, 85 μl mixtures in each well were transferred into a flat-bottom 96-well black plate (Greiner), and the fluorescence (F) was measured using a Tecan Infinity M200 plate reader (Tecan Group Ltd.) by setting the excitation and emission wavelength to 382 nm and 445 nm respectively. The last row of each 96-well plate includes six wells of background controls and six wells of reference controls. The relative enzyme activity (Activity%) regulated by specific compound was calculated according to equation (1): […]
To determine the IC50 of inhibitors, 0.5 μl compound stocks with various concentrations were added into 96-well plate. The plate was incubated at 37 °C for 5 min after addition of 20 μl reaction buffer containing NAMPT. […] The IC50 values were determined by non-linear fitting of the concentration-dependent curves with the four-parameter IC50 logistic equation.

[1] = test system: primary mouse hepatocytes; assay: Cell viability of primary hepatocytes from normal mice; format: cell-based; settings: 30 μM
Procedure: (§1) Cell viability was determined by our previous method[27] using the Cell Counting Kit-8 (CCK-8, Dojindo, Japan). In human hepatocellular carcinoma cell line HepG2, cells were seeded in 96-well plate and starved for over 12 h with serum-free DMEM at 60~70% confluency, then treated with compounds or vehicle for 48 h. To determine the IC50 values of inhibitors, compounds with various concentrations were added into the 96-well plate. 10 μl CCK-8 solution was added to the culture medium and incubated at 37 °C for 1 h. The absorbance at 450 nm (A450) was detected by a plate reader. Each experiment was carried out in triplicate in three replicate wells. The IC50 values were determined by non-linear fitting of the concentration-dependent curves with the four-parameter IC50 logistic equation.
(§2) Hepatocytes were isolated from mouse liver by the two-step collagenase perfusion method. […] For imaging experiment, 1 × 10^5 cells were plated in a 35-mm glass bottom dishes or 5 × 10^4 were plated in 48-well plate for cell viability assay in DMEM supplemented with 10% FBS and antibiotics, and kept under an atmosphere of 95% air and 5% CO2 at 37 °C.

HepG2 cells [2] = assay: Live cell fluorescence imaging of compounds in HepG2 cells; format: cell-based, human; settings: 3 μM
Procedure: NAMPT knockdown in HepG2 cells was performed by transfection of NAMPT siRNA synthesized by Shanghai GenePharma Co., Ltd (Shanghai, China). The siRNA sequence targeting NAMPT corresponded to coding regions (5′-[…]-3′, 5′-[…]-3′) of the NAMPT gene. The nonspecific siRNA oligonucleotides (synthesized by Shanghai GenePharma Co., Ltd, Shanghai, China) were used as negative controls. 10 nM of NAMPT siRNA or nonspecific siRNA were transfected into HepG2 cells with Lipofectamine RNAiMax reagent (Invitrogen, CA, USA) according to the manufacturer’s instructions. After 24 or 48 hours, transfected cells were subjected to subsequent analysis.
(§3) For imaging experiment, HepG2 cells or primary hepatocytes were seeded into 35-mm glass bottom dishes (In Vitro Scientific). The following day, compounds were added to the medium at a final concentration of 3 μM. After 30 minutes, cells were rinsed twice with PBS (pH 7.5), then incubated in fresh culture medium and imaged on a fluorescence microscope (IX-71, Olympus) with a digital camera (Olympus). After 4 hours, these cells were imaged once again. Digital images were recorded and analyzed using ImageJ.

HepG2 cells [3] = assay: Cell viability assay (CCK-8) in HepG2 cells; format: cell-based, human; settings: for IC50: HepG2, 48 h, CCK-8, read-out: IC50 for inhibitory effect on HepG2 cell viability
Procedure: as §1

[4] = test system: primary mouse hepatocytes; assay: Live cell fluorescence imaging in primary mouse hepatocytes (wild type vs NAMPT over expression transgenic); format: cell-based; settings: hepatocytes of NAMPT over expression transgenic vs wild type mice, 3 μM
Procedure: as §2, §3

HepG2 NAD levels = assay: Cellular NAD measurement (enzymatic cycling assay) in HepG2 cells; format: cell-based, human
Procedure: Cellular level of NAD was measured by spectrophotometric enzymatic cycling assay, as described previously. Briefly, cells were seeded in 96-well plate and starved for over 12 h with serum-free DMEM at 60~70% confluency, following by treatment with compounds or vehicle for 24 h. Cells were lysed with 50 μl of 1M HClO4 on ice for 30 min. The lysates were cleared by centrifuging at 4 °C at 18,000 × g for 5 min, and cleared lysates (40 μl) were neutralized by adding 1M K2CO3 (16 μl) and incubation on ice for 20 min. After centrifuging for 10 min, 10 μl of supernatant were mixed with reaction buffer [50 mM Tris-HCl (pH 7.5), 3% ethanol, 1.66 mM PES (phenazineethosulfate), 0.42 mM MTT (3-(4,5-dimethylthiazolyl-2)-2,5-diphenyltetrazolium bromide), 90 μg/ml ADH] in a total volume of 100 ul, and incubated at 37 °C for 40 min. The absorbance at 570 nm was determined. A blank measurement without ADH was also carried out. Each experiment was carried out in triplicate in three replicate wells

IC50 (recombinant human NAMPT): 0.17 ± 0.012 µM | IC50 (HepG2 cells [3]): ~2 µM | IC50 (HepG2 cells [3]; Homo sapiens): 1.95 ± 0.17 µM | IC50 (HepG2 NAD levels; Homo sapiens, HepG2, 24 hours treatment, read-out: IC50 for reducing NAD level): 0.0176 µM
Compound: CCCn1c(=O)c(-c2ccc(C(=O)NCc3cccnc3)cc2)nc2ccccc21 [M049-0244]
Effect on Huh-7 cell viability (Huh-7 cell): Inhibitory effects | Inhibition of normal hepatocytes viability [1]: ~ 20% | Cellular fluorescence in living HepG2 cells (HepG2 cells [2]; 30 minutes incubation, washed): fluorescence was obviously detected within the cell; also recorded: significantly stained living HepG2 cells | Cellular fluorescence after NAMPT knockdown (RNAi-NAMPT) (HepG2 cells [2]; HepG2, NAMPT siRNA vs nonspecific siRNA): significantly reduced the fluoresecence | Rescue of cell viability by exogenous NMN (HepG2 cells [3]; HepG2, 3 μM compound, NMN at 300 μM): totally rescued | Effect on HepG2 cell viability at 1 and 10 μM (HepG2 cells [3]; two concentrations (1 and 10 μM)): significant inhibition on HepG2 cell viability in a dose dependent manner | Cellular fluorescence intensity with NAMPT over expression [4]: increased the cellular fluorescence intensity | Decrease of cellular NAD level (HepG2 NAD levels; HepG2, 1 μM, 24 hours): ~ 80%

Source: publication PMC4521150, “Discovery of Novel Inhibitors and Fluorescent Probe Targeting NAMPT” (Scientific Reports, 2015)
